Data set [1] has as its system replicative intermediate (RI) HBV DNA in HepG2.2.15 cells. Description: Southern hybridization viral assay in HepG2.2.15 cells. It is filed as cell-based, hepatitis B virus. The settings on record: titrated concentrations, FIGS. 11, 12. From the text:
The activity of antisense oligonucleotides was also studied in a viral assay in HepG2.2.15 cells, which have been stably transfected with plasmids carrying whole HBV genomes (Sells et al. (1987) Proc. Nat. Acad. Sci. 84:1005–1009; Sureau et al. (1986) Cell 47:37–47). […] A more definitive test is Southern hybridization, which provides data concerning the character of the detected DNA in addition to quantitation. This assay has been described previously for the screening of anti-HBV compounds on HepG2.2.15 cells (Doong et al. (1991) Proc. Nat. Acad. Sci. (USA) 88:8495–8499). In view of the many potential sources of HBV DNA from transfected cells, this assay allows for a more meaningful interpretation of results than the other methods mentioned.
The cell line HepG2.2.15 (Sells et al. (1988) J. Virol. 62:2836–2844) was routinely cultured in RPMI.1640 medium (Life Technologies Ltd., Paisley, Scotland) supplemented with 10% fetal bovine serum (FBS), 100 U/ml penicillin, and 150 μg/ml streptomycin. Cultures were replaced after 10 passages with cells freshly cultured from a mycoplasma-free frozen stock. Cultures were maintained at 37° C. in a humidified atmosphere of 5% CO2 in air.
Cells were cultured in 6-well plates at 10^6 cells/well in 4 ml medium (RPMI.1640 as above but supplemented with 5% FBS) and maintained as above. […]

Data set [2] concerns internally 32P-labelled HBV precore-core RNA (epsilon region). The experiment in a line: RNase H cleavage of HBV precore-core RNA with noncontiguous oligonucleotides targeted to the epsilon region. The class given is biochemical, hepatitis B virus. Here is the method: To determine whether an oligonucleotide of the invention is capable of successfully hybridizing to its target, an RNase H assay was performed (Frank et al. (1993) Proc. Int. Conf. Nucleic Acid Med. Applns. 1:4.14(abstract)). This assay is useful when a region of at least four contiguous nucleotides of the oligonucleotide is DNA and the target is RNA. Hybridization of the DNA portion of the oligonucleotide to the RNA target is identified by cleavage at that site by RNase H.
Noncontiguous oligonucleotides targeted to the HBV epsilon region have also been prepared and tested. The epsilon region is characterized by an RNA stem-loop structure consisting primarily of double-stranded RNA with a single-stranded bulge and loop of 6 bases each (FIG. 3). […] The ability of RNase H to cleave an RNA in this manner inflicts greater damage on the RNA than normal antisense oligodeoxynucleotides, while allowing the targeting of a biologically important region that is otherwise difficult to target due to its double-stranded nature.
Based on this information, several oligodeoxynucleotide phosphorothioates were prepared to test the hypothesis that hybridization by mode B is preferred when spanning the base of an RNA stem. 20mer and 24mer noncontiguous oligonucleotides (Table 2) were prepared as well as the 10mers and 12mers corresponding to the “arms” of the noncontiguous sequences.
If a single oligodeoxynucleotide were able to bind across the base of epsilon to sequences on either side of the stem, RNase H might cleave both sites and effectively cut out the epsilon stem-loop from the RNA. […] The 12+12 noncontiguous phosphorothioates show the same ability to bind across the base of the RNA stem. […] Double cleavage of the transcript in the presence of the mixture of 12mer arms (HBV71+HBV72) was much slower (FIG. 6B).
When oligonucleotides hybridizing via mode B were lengthened to allow strand invasion of the RNA stem, disruption of the stem-loop structure occurred. Oligonucleotides HBV89 (SEQ ID NO:39), HBV90 (SEQ ID NO:40), and HBV91 (SEQ ID NO:41) bind across the base of epsilon via mode B and strand invade on either the 5 side (HBV89) or the 3′ side (HBV90 and HBV91) of the RNA stem. HBV89M is an extension of HBV64M with ten 2′-O-methyl RNA residues invading the RNA stem on the 5′-side. Addition of these strand invading nucleotides increased the cleavage efficiency from 23% to 32% at 100 nM oligonucleotide.
Uniformally ^32P-labelled RNA was prepared from 1 μg linearized plasmid using the Ambion MEGAscript In Vitro Transcription Kit (Ambion, Inc., Austin, Tex.) according to the manufacturers' instructions, using [α-^32p] CTP as the radioactive label. The RNA was treated with RNase-free DNase I (Ambion, Inc., Austin, Tex.), extracted with phenol:chloroform: isoamyl alcohol (25:24:1) and purified from nucleotides and nucleosides on a G-50 Sephadex spin column (Boehringer-Mannheim, Indianapolis, Ind., or Pharmacia, Uppsala, Sweden).
In 9 μl 1× RNase H buffer (40 mM Tris-HCl pH 7.4, 4 mM MgCl2, 1 mM DTT), 20–100 nM labelled RNA and 100 nM oligonucleotides were preincubated for 15 min at 37° C. 1 μl RNase H (1 U/μl) was added, and the reaction was incubated at 37° C. for 10 min. The reactions were quenched and analyzed as described above.
Quantitation of the cleavage products was performed using software supplied with the Phosphorimager (Molecular Dynamics, Sunnyvale, Calif., or Bio-Rad Laboratories, Hercules, Calif.). “Counts” were determined by drawing a box around the band of interest and subtracting the background determined with a box drawn nearby. Counts in a product band were compared to total counts in the lane above that band to determine % cleavage.

The next data set deals with parent pGLori sequence. The experiment in a line: Firefly luciferase reporter gene assay in HepG2 cells stably transfected with parent construct (control). It is filed as cell-based. Here is the method: Oligonucleotides targeted to the polymerase translation initiation region were also tested in mammalian cells using a firefly luciferase reporter gene assay. The 35 nucleotide region spanning the translation start site of the HBV ayw polymerase gene from nt 2294–2328 was cloned 5′ to, and in frame with, the entire open reading frame of the firefly luciferase gene in the plasmid pGLori, to produce the plasmid pGLpol (FIG. 10). Transcription of this pol-luciferase gene fusion was placed under the control of the cytomegalovirus early gene promoter. Expression of the pol-luciferase fusion in mammalian cells was quantified in a luminometer by addition of luciferin substrate and ATP cofactor to cell lysates. In all cellular antisense assays, a random sequence 20mer phosphorothioate oligonucleotide (random 20mer PS) was used as a negative control. […]
Stably transfected HepG2 cells were seeded into 96 well plates. […] Cells were washed twice with Dulbecco's phosphate-buffered saline (PBS) and lysed in 50 μl cell lysis buffer (Analytical Luminescence Laboratory, San Diego, Calif.). Luciferase activity was measured in 20 μl lysate using Analytical Luminescence Laboratory substrates in a MicroLumat LB 96 P luminometer (EG&G Berthold, Nashua, N.H.).
Background: In a reporter assay the amount or activity of a reporter protein is the signal.

“Also recorded” adds a separate entry of the source.

The results in this text go back to patent US6984729B1, “Oligonucleotides specific for hepatitis B virus” (priority 1995, dated 2006).

In the case of “ACCCAAGGCACAGCTTGGAG (phosphorothioate, further chemistry not given here) [HBV6]”, the “inhibition of the formation of replicative intermediate (RI) HBV DNA” value in data set [1] is recorded as “significant inhibition”. Take “AGGCAGAGGTGATATAAGGGTCGA (chemistry not given here) [HBV67]”: in data set [2] (10+10 and 12+12 noncontiguous oligonucleotides versus mixtures of arms, FIGS. 5A, 6A), the “total RNA cleavage by RNase H” value was “equal”. Further, in data set [2] (FIGS. 5B, 6B), the “double cleavage (twice cleaved product) by RNase H on both sides of the epsilon stem” value was “efficiently activate RNase H cleavage on both sides of the stem after only 1.5 minutes; also recorded: slightly more cleavage than mode A (HBV79)”. Moreover, in data set [1], the “inhibition of the formation of replicative intermediate (RI) HBV DNA” value is given as “Inhibition was also found”. On to “Luc +1–+20: 20mer phosphorothioate antisense oligonucleotide targeting the first 20 nucleotides of the firefly luciferase coding region, positive control, SEQ ID NO:50 (antisense ATGTTTTTGGCGTCTTCCAT; all phosphorothioate, sugars by position and methylation of C not given here)”, for which, in the data set with parent pGLori sequence, the “antisense activity on luciferase expression, parent pGLori” value is listed as “exhibited antisense activity”.
